# Read-outs that look alike come from different tables or passages of the source.
# How the values were obtained:
# [1] = biological target: recombinant SARS-CoV-2 Main protease (Mpro) (Severe acute respiratory syndrome coronavirus 2 (2019-nCoV) (SARS-CoV-2), UniProt P0DTD1); assay: Cov Mpro Biochemical IC50 Assay
# [2] = system: SARS-CoV-2-NLuc; assay: microbe, parasite or virus in culture; assay type: cell-based, SARS Coronavirus 2
# [3] = recombinant SARS-CoV-2 Mpro 7.5 nM, fluorogenic peptide substrate 40 μM, read-out: MPro IC50
# [4] = recombinant SARS-CoV-2 Mpro, fluorogenic peptide substrate, read-out: MPro IC50
# [5] = Severe acute respiratory syndrome coronavirus, 48 h, read-out: MPro EC50
# [6] = Severe acute respiratory syndrome coronavirus, 48 h; read-out: MPro EC50
# [7] = MPro IC50, recombinant SARS-CoV-2 Mpro 7.5 nM, fluorogenic peptide substrate 40 μM
SMILES,"IC50 [1, 3] [nM]","EC50 [2, 5] [nM]",other results
"Cn1nnc2cncc(-n3c(=O)c4sc(-c5ccc(F)cc5Cl)cc4n(CCC#N)c3=O)c21 (single isomer, unassigned) [Example 1028, 3-[6-(2-chloro-4-fluoro-phenyl)-3-(1-methyltriazolo[4,5-c]pyridin-7-yl)-2,4-dioxo-thieno[3,2-d]pyrimidin-1-yl]propanenitrile]",17.9,,EC50 ([2]; read-out: MPro EC50): 51 nM
COc1ccc(Cl)c(-c2cc3[nH]c(=O)n(-c4cncc5ccc(N6CCS(=O)(=O)CC6)cc45)c(=O)c3s2)c1 [Example 226],,23.7,"IC50 [1, 4]: 3.74 nM"
"COc1cc(-c2cc3[nH]c(=O)n(-c4cncc5scc(C)c45)c(=O)c3s2)c(Cl)cc1F [Example 611, 6-(2-chloro-4-fluoro-5-methoxyphenyl)-3-(3-methylthieno[2,3-c]pyridin-4-yl)thieno[3,2-d]pyrimidine-2,4(1H,3H)-dione]",< 2.54,4.95,
Cn1ncc2cncc(-n3c(=O)c4sc(-c5ccc(C#N)cc5Cl)cc4n(CCC#N)c3=O)c21 [Example 1025],86.4,244,
Cc1cncc(-n2c(=O)c3sc(-c4cc(Cl)ccc4C#N)cc3n(CCC#N)c2=O)c1 [Example 879],4.33,,"EC50 [2, 6]: 20.4 nM"
"Cn1cnc(Cn2c(=O)n(-c3cncc4ccccc34)c(=O)c3sc(-c4ccccc4Cl)cc32)n1 (single isomer, unassigned) [Example 478, 6-(2-chlorophenyl)-3-(4-isoquinolyl)-1-[(1-methyl-1,2,4-triazol-3-yl)methyl]thieno[3,2-d]pyrimidine-2,4-dione]",4290,,EC50 ([2]; read-out: MPro EC50): 8280 nM
CCn1cc(-c2cccc(Cl)c2-c2ccc3c(=O)n(-c4cncc5ccccc45)c(=O)[nH]c3c2)c(C(F)(F)F)n1 [Example 281],,39.5,"IC50 [1, 4]: 71.8 nM"
O=c1[nH]c2cc(-c3c(Cl)cccc3-c3cnn4c3CNCC4)ccc2c(=O)n1-c1cncc2ccccc12 [Example 474],14,124,
O=c1[nH]c2cc(-c3ccc4ccccc4c3)ccc2c(=O)n1-c1cncc2ccccc12 [Example 51],,6800,"IC50 [1, 4]: > 100000 nM"
COc1cc(-c2cc3c(s2)c(=O)n(-c2c(C)ccnc2F)c(=O)n3CCC#N)c(Cl)cc1F [Example 916],11.5,30.3,
"COc1cc(-c2cc3[nH]c(=O)n(-c4cncc5ccc(C)nc45)c(=O)c3s2)c(Cl)cc1F (single isomer, unassigned) [Example 1034, 6-(2-chloro-4-fluoro-5-methoxyphenyl)-3-(2-methyl-1,6-naphthyridin-8-yl)thieno[3,2-d]pyrimidine-2,4(1H,3H)-dione]",3.13,,EC50 ([2]; read-out: MPro EC50): 3.04 nM
"Cn1cnc(Cn2c(=O)n(-c3cncc4ccccc34)c(=O)c3sc(-c4ccccc4Cl)cc32)n1 [Example 153, 6-(2-chlorophenyl)-3-(4-isoquinolyl)-1-[(1-methyl-1,2,4-triazol-3-yl)methyl]thieno[3,2-d]pyrimidine-2,4-dione]",,66.1,"IC50 [1, 4]: 18.5 nM"
O=c1[nH]c2cc(-c3c(Cl)cccc3-c3ccc4oncc4c3)ccc2c(=O)n1-c1cncc2ccccc12 [Example 361],,178,"IC50 [1, 4]: 38.9 nM"
"COc1cc(-c2cc3[nH]c(=O)n(-c4cncc5ccccc45)c(=O)c3cc2F)c(Cl)cc1F (single isomer, unassigned) [Example 1007, 7-(2-chloro-4-fluoro-5-methoxy-phenyl)-6-fluoro-3-(4-isoquinolyl)-1H-quinazoline-2,4-dione]",,,"IC50 [1, 7]: 331 nM; EC50 ([2]; read-out: MPro EC50): 301 nM"
COc1cnc(C#N)c(-c2cc3c(s2)c(=O)n(-c2cncc4nn(C)c(C)c24)c(=O)n3CCC#N)c1 [Example 1087],60.2,> 1000,
CS(=O)(=O)N1CCN(c2ccc3cncc(-n4c(=O)[nH]c5cc(-c6ccccc6Cl)sc5c4=O)c3c2)CC1 [Example 421],4.42,38.8,
COc1cc(-c2cc3c(s2)c(=O)n(-c2cncc4c2CCCC4)c(=O)n3CCC#N)c(Cl)cc1F [Example 908],7.52,6.84,
"COc1cc(-c2cc3[nH]c(=O)n(-c4cncc5sc(C(F)F)c(C)c45)c(=O)c3s2)c(Cl)cc1F [Example 1060, 6-(2-chloro-4-fluoro-5-methoxyphenyl)-3-(2-(difluoromethyl)-3-methylthieno[2,3-c]pyridin-4-yl)thieno[3,2-d]pyrimidine-2,4(1H,3H)-dione]",20,28.9,
COc1cc(-c2cc3c(s2)c(=O)n(-c2cc(C)cnn2)c(=O)n3CCC#N)c(C#N)cc1F [Example 812],8.87,,"EC50 [2, 6]: 89 nM"
COc1cncc(-n2c(=O)[nH]c3cc(-c4ccccc4Cl)ccc3c2=O)c1C [Example 141],,32200,"IC50 [1, 4]: 6650 nM"
O=c1[nH]c2cc(-c3ccccc3Cl)sc2c(=O)n1-c1cncc2ccoc12 [Example 490],20.8,55.8,
COc1ccc(Cl)c(-c2ccc3c(=O)n(-c4cncc5ccc(N6CCC(F)(F)C6)cc45)c(=O)[nH]c3c2)c1 [Example 407],79.7,184,
"COc1cc(-c2cc3c(s2)c(=O)n(-c2cncc4cnn(C)c24)c(=O)n3CC(F)F)c(Cl)cc1F [Example 1065, 6-(2-chloro-4-fluoro-5-methoxy-phenyl)-1-(2,2-difluoroethyl)-3-(1-methylpyrazolo[4,3-c]pyridin-7-yl)thieno[3,2-d]pyrimidine-2,4-dione]",7.01,,"EC50 [2, 6]: 13.6 nM"

SMILES,"IC50 [1, 3] [nM]","EC50 [2, 5] [nM]",other results
Cn1cc2ccc(-c3cc4[nH]c(=O)n(-c5cncc6ccccc56)c(=O)c4s3)cc2n1 [Example 10],,20000,"IC50 [1, 4]: 13700 nM"
COc1cc(-c2cc3c(s2)c(=O)n(-c2cncc(Cl)c2)c(=O)n3CCC#N)c(C#N)cc1F [Example 866],5.61,12.9,
"COc1cc(-c2cc3[nH]c(=O)n(-c4cncc5ccccc45)c(=O)c3cc2F)c(Cl)cc1F [Example 650, 7-(2-chloro-4-fluoro-5-methoxy-phenyl)-6-fluoro-3-(4-isoquinolyl)-1H-quinazoline-2,4-dione]",,,"IC50 [1, 7]: 31.7 nM; EC50 [2, 6]: 33.9 nM"
"COc1ccc(C#N)c(-c2cc3[nH]c(=O)n(-c4cncc5ccccc45)c(=O)c3s2)c1 (single isomer, unassigned) [Example 554, 2-(3-(isoquinolin-4-yl)-2,4-dioxo-1,2,3,4-tetrahydrothieno[3,2-d]pyrimidin-6-yl)-4-methoxybenzonitrile]",3.88,,EC50 ([2]; read-out: MPro EC50): 14.9 nM
O=c1[nH]c2cc(-c3ccccc3Cl)sc2c(=O)n1-c1cncc2c1CCCO2 [Example 596],38.2,108,
Cc1ccncc1-n1c(=O)[nH]c2cc(-c3ccccc3Cl)sc2c1=O [Example 216],,112,"IC50 [1, 4]: 62.3 nM"
COc1cc(-c2cc3c(s2)c(=O)n(-c2cncc(Cl)c2)c(=O)n3CCC#N)c(Cl)cc1F [Example 985],2.11,6.7,
O=c1[nH]c2cc(-c3cncc4ccccc34)ccc2c(=O)n1-c1cncc2ccccc12 [Example 42],,,"IC50 [1, 4]: 3220 nM; EC50 [2, 6]: 4950 nM"
N#CCCn1c(=O)n(-c2cncc3nnn(C4CC4)c23)c(=O)c2sc(-c3ccc(F)cc3Cl)cc21 [Example 883],30.3,233,
COc1cncc(-n2c(=O)c3sc(-c4cc(OC)c(F)cc4Cl)cc3n(CCC#N)c2=O)c1 [Example 870],2.89,3.41,
COc1cc(-c2cc3c(s2)c(=O)n(-c2cncc4ccc(Cl)cc24)c(=O)n3CCC#N)c(Cl)cc1F [Example 946],6.82,12.9,
COc1cc(-c2cc3c(=O)n(-c4cncc5ccccc45)c(=O)n(CCC#N)c3s2)c(Cl)cc1F [Example 867],9.82,13.1,
COc1cc(-c2cc3[nH]c(=O)n(-c4cncc5c4c(C)nn5CC(F)(F)F)c(=O)c3s2)c(Cl)cc1F [Example 741],> 1000,> 1000,
CCn1ncc2cncc(-n3c(=O)c4sc(-c5cc(OC)c(F)cc5Cl)cc4n(CCC#N)c3=O)c21 [Example 910],4.34,4.35,
COc1cc2c(=O)n(-c3cncc4ccccc34)c(=O)[nH]c2cc1-c1c(Cl)cccc1OC [Example 77],,,"IC50 [1, 4]: 131 nM; EC50 [2, 6]: 115 nM"
COc1ccc(C)c(-c2ccc3c(=O)n(-c4cncc5ccccc45)c(=O)[nH]c3c2)c1 [Example 301],,173,"IC50 [1, 4]: 259 nM"
Cc1c(-c2cccc(Cl)c2-c2ccc3c(=O)n(-c4cncc5ccccc45)c(=O)[nH]c3c2)cn2ncnc2c1C [Example 233],,26.8,"IC50 [1, 4]: 12.3 nM"
COc1cc(-c2cc3c(s2)c(=O)n(-c2cnccc2C(F)(F)F)c(=O)n3CCC#N)c(Cl)cc1F [Example 861],35.8,68.9,
"COc1cc(-c2cc3[nH]c(=O)n(-c4cncc5ccn(C)c(=O)c45)c(=O)c3s2)c(Cl)cc1F [Example 976, 6-(2-chloro-4-fluoro-5-methoxy-phenyl)-3-(6-methyl-5-oxo-2,6-naphthyridin-4-yl)-1H-thieno[3,2-d]pyrimidine-2,4-dione]",8.07,15.4,
N#CCCn1c(=O)n(-c2cncc(F)c2)c(=O)c2sc(-c3ccc(F)cc3Cl)cc21 [Example 788],35.6,52.2,
Cn1cnc2cncc(-n3c(=O)c4sc(-c5ccc(F)cc5Cl)cc4n(CCC#N)c3=O)c21 [Example 851],22.3,,"EC50 [2, 6]: 75.3 nM"
"COc1cc(-c2cc3[nH]c(=O)n(-c4cncc5ccn(C)c45)c(=O)c3s2)c(Cl)cc1F (single isomer, unassigned) [Example 958, 6-(2-chloro-4-fluoro-5-methoxyphenyl)-3-(1-methyl-1H-pyrrolo[3,2-c]pyridin-7-yl)thieno[3,2-d]pyrimidine-2,4(1H,3H)-dione]",11.2,,EC50 ([2]; read-out: MPro EC50): 13.3 nM
